Measured values taken from the supplement of paper PMC6045584.
± gives the standard deviation of the averaged measurements.

Legend:
VINORELBINE = compound: CCC1=C[C@@H]2CN(C1)Cc1c([nH]c3ccccc13)[C@@](C(=O)OC)(c1cc3c(cc1OC)N(C)[C@H]1[C@@](O)(C(=O)OC)[C@H](OC(C)=O)[C@]4(CC)C=CCN5CC[C@]31[C@@H]54)C2 [VINORELBINE]; assay: surviving fraction relative to DMSO-only wells; higher = less growth inhibition; conditions: exposure time: 5 days
Summary of the method: (§1)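 In 384-well plates, 250–500 log-phase tumour cells per well were given 24 hours before five days of continuous exposure to inhibitors at 0.5, 1, 5, 10, 50, 100, 500 and 1000 nM. Surviving fraction is luminescence from CellTiter-Glo, normalised to the median of wells containing DMSO alone. Reading took place after 10 minutes at room temperature.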

ETOPOSIDE = compound: COc1cc([C@@H]2c3cc4c(cc3[C@@H](O[C@@H]3O[C@@H]5CO[C@@H](C)O[C@H]5[C@H](O)[C@H]3O)[C@H]3COC(=O)[C@H]23)OCO4)cc(OC)c1O [ETOPOSIDE]; assay: as above; conditions: exposure time: 5 days
Summary of the method: as §1

Test System | surviving fraction (VINORELBINE; 0.5 nM) | surviving fraction (VINORELBINE; 1 nM) | surviving fraction (VINORELBINE; 5 nM) | surviving fraction (VINORELBINE; 10 nM) | surviving fraction (VINORELBINE; 50 nM) | surviving fraction (VINORELBINE; 100 nM) | surviving fraction (VINORELBINE; 500 nM) | surviving fraction (VINORELBINE; 1000 nM) | surviving fraction (ETOPOSIDE; 0.5 nM) | surviving fraction (ETOPOSIDE; 1 nM) | surviving fraction (ETOPOSIDE; 5 nM) | surviving fraction (ETOPOSIDE; 10 nM) | surviving fraction (ETOPOSIDE; 50 nM) | surviving fraction (ETOPOSIDE; 100 nM) | surviving fraction (ETOPOSIDE; 500 nM) | surviving fraction (ETOPOSIDE; 1000 nM)
HT1080 SOFT TISSUE | 1.02 ± 0.02 | 1.02 ± 0.016 | 0.903 ± 0.018 | 0.503 ± 0.01 | 0.0517 ± 0.0055 | 0.0363 ± 0.00058 | 0.038 ± 0.002 | 0.0363 ± 0.0015 | 1.02 ± 0.028 | 0.995 ± 0.026 | 0.951 ± 0.02 | 0.94 ± 0.015 | 0.616 ± 0.046 | 0.467 ± 0.0051 | 0.217 ± 0.021 | 0.222 ± 0.0056
SUM44 BREAST | 1.01 ± 0.068 | 0.972 ± 0.034 | 0.668 ± 0.068 | 0.387 ± 0.024 | 0.258 ± 0.013 | 0.225 ± 0.023 | 0.264 ± 0.014 | 0.256 ± 0.024 | 1.03 ± 0.026 | 1.05 ± 0.034 | 1.05 ± 0.046 | 1.06 ± 0.027 | 1.09 ± 0.043 | 1.11 ± 0.062 | 0.928 ± 0.082 | 0.913 ± 0.036
OSHN BONE | 1.07 ± 0.022 | 1.048 ± 0.0086 | 1.09 ± 0.021 | 1.04 ± 0.021 | 0.0367 ± 0.0021 | 0.025 ± 0.001 | 0.026 | 0.0293 ± 0.00058 | 1.05 ± 0.025 | 1.05 ± 0.042 | 1.06 ± 0.046 | 1.06 ± 0.041 | 1.07 ± 0.042 | 1.07 ± 0.048 | 0.452 ± 0.042 | 0.174 ± 0.0076
PCI30 HEADNECK | 0.994 ± 0.024 | 1.05 ± 0.02 | 0.463 ± 0.054 | 0.228 ± 0.017 | 0.078 ± 0.003 | 0.0933 ± 0.022 | 0.113 ± 0.025 | 0.147 ± 0.025 | 0.943 ± 0.1 | 1.03 ± 0.025 | 1.02 ± 0.09 | 1 ± 0.041 | 1.07 ± 0.05 | 1.01 ± 0.053 | 0.579 ± 0.063 | 0.424 ± 0.031
MFM223 BREAST | 1.13 ± 0.1 | 1.05 ± 0.066 | 0.905 ± 0.094 | 0.512 ± 0.01 | 0.0818 ± 0.0055 | 0.0723 ± 0.011 | 0.0547 ± 0.00076 | 0.0517 ± 0.0023 | 1.1 ± 0.056 | 1.19 ± 0.14 | 1.17 ± 0.12 | 1.07 ± 0.038 | 1.12 ± 0.035 | 1.06 ± 0.035 | 0.721 ± 0.032 | 0.729 ± 0.052
NOS1 BONE | 0.987 ± 0.04 | 1.1 ± 0.081 | 0.978 ± 0.024 | 0.805 ± 0.024 | 0.287 ± 0.047 | 0.263 ± 0.035 | 0.195 ± 0.017 | 0.188 ± 0.016 | 1.11 ± 0.12 | 1.01 ± 0.099 | 1.33 ± 0.24 | 1.19 ± 0.12 | 0.977 ± 0.08 | 0.91 ± 0.24 | 0.601 ± 0.075 | 0.623 ± 0.074
HCC1806 BREAST | 0.976 ± 0.16 | 1.02 ± 0.075 | 1.01 ± 0.077 | 0.173 ± 0.14 | 0.0363 ± 0.0095 | 0.0347 ± 0.0038 | 0.042 ± 0.001 | 0.041 ± 0.0053 | 0.883 ± 0.089 | 1.04 ± 0.14 | 1.05 ± 0.082 | 1.03 ± 0.075 | 1.14 ± 0.029 | 0.807 ± 0.067 | 0.182 ± 0.021 | 0.141 ± 0.0035
SG31 HEADNECK | 1.08 ± 0.15 | 1.19 ± 0.14 | 0.848 ± 0.12 | 0.82 ± 0.11 | 0.369 ± 0.04 | 0.315 ± 0.021 | 0.308 ± 0.057 | 0.38 ± 0.072 | 1.05 ± 0.092 | 1.06 ± 0.04 | 1.1 ± 0.11 | 1.13 ± 0.14 | 0.946 ± 0.11 | 0.969 ± 0.11 | 0.856 ± 0.087 | 0.837 ± 0.058
HMLE3 BREAST | 0.993 ± 0.017 | 0.965 ± 0.053 | 1.07 ± 0.044 | 0.987 ± 0.013 | 0.125 ± 0.029 | 0.053 ± 0.012 | 0.0317 ± 0.0067 | 0.0373 ± 0.005 | 1.02 ± 0.052 | 0.974 ± 0.06 | 1.01 ± 0.027 | 0.9737 ± 0.0075 | 0.826 ± 0.018 | 0.589 ± 0.06 | 0.279 ± 0.045 | 0.27 ± 0.017
MDAMB361 BREAST | 0.791 ± 0.062 | 0.786 ± 0.076 | 0.695 ± 0.056 | 0.603 ± 0.016 | 0.607 ± 0.03 | 0.566 ± 0.04 | 0.5787 ± 0.0021 | 0.502 ± 0.058 | 0.921 ± 0.048 | 0.848 ± 0.056 | 0.884 ± 0.055 | 0.946 ± 0.068 | 0.958 ± 0.067 | 0.963 ± 0.091 | 0.954 ± 0.051 | 0.972 ± 0.049
A549 LUNG | 0.982 ± 0.049 | 0.989 ± 0.049 | 0.979 ± 0.053 | 0.968 ± 0.045 | 0.461 ± 0.034 | 0.308 ± 0.023 | 0.228 ± 0.0085 | 0.274 ± 0.015 | 0.989 ± 0.071 | 0.99 ± 0.074 | 0.988 ± 0.026 | 0.976 ± 0.05 | 1 ± 0.057 | 1.09 ± 0.057 | 0.958 ± 0.048 | 0.67 ± 0.017
VP229 BREAST | 1.13 ± 0.18 | 0.962 ± 0.062 | 0.958 ± 0.098 | 0.8 ± 0.048 | 0.351 ± 0.043 | 0.297 ± 0.016 | 0.275 ± 0.012 | 0.245 ± 0.014 | 1.11 ± 0.042 | 1.09 ± 0.16 | 1.14 ± 0.24 | 1.19 ± 0.075 | 1.17 ± 0.062 | 1.13 ± 0.064 | 1.18 ± 0.14 | 1.15 ± 0.084
MDAMB436 BREAST | 0.9 ± 0.064 | 0.88 ± 0.045 | 0.796 ± 0.12 | 0.742 ± 0.038 | 0.591 ± 0.032 | 0.51 ± 0.033 | 0.211 ± 0.013 | 0.221 ± 0.018 | 0.957 ± 0.038 | 1 ± 0.053 | 1.05 ± 0.079 | 0.943 ± 0.022 | 0.873 ± 0.11 | 0.822 ± 0.045 | 0.499 ± 0.02 | 0.416 ± 0.059
SG43 HEADNECK | 1.04 ± 0.14 | 1.13 ± 0.097 | 0.785 ± 0.095 | 0.669 ± 0.075 | 0.47 ± 0.036 | 0.364 ± 0.093 | 0.242 ± 0.066 | 0.138 ± 0.066 | 1.02 ± 0.13 | 1.02 ± 0.21 | 0.933 ± 0.24 | 0.832 ± 0.23 | 0.876 ± 0.031 | 0.645 ± 0.11 | 0.894 ± 0.07 | 0.644 ± 0.064
RDES SOFT TISSUE | 1.23 ± 0.18 | 1.15 ± 0.28 | 1.19 ± 0.18 | 1.24 ± 0.39 | 0.0793 ± 0.0093 | 0.071 ± 0.011 | 0.039 ± 0.0036 | 0.039 ± 0.005 | 1.08 ± 0.022 | 1.16 ± 0.21 | 1.1 ± 0.11 | 1.11 ± 0.071 | 0.854 ± 0.21 | 1.15 ± 0.3 | 0.232 ± 0.03 | 0.0647 ± 0.0021
SKBR3 BREAST | 0.957 ± 0.093 | 1.17 ± 0.035 | 0.532 ± 0.12 | 0.291 ± 0.058 | 0.146 ± 0.013 | 0.156 ± 0.019 | 0.179 ± 0.0087 | 0.182 ± 0.015 | 1.07 ± 0.027 | 1.06 ± 0.099 | 1.1 ± 0.15 | 1.03 ± 0.12 | 1.12 ± 0.11 | 1.05 ± 0.084 | 0.66 ± 0.068 | 0.478 ± 0.12
OS25HAL BONE | 0.97 ± 0.046 | 0.985 ± 0.021 | 1.02 ± 0.024 | 0.912 ± 0.052 | 0.202 ± 0.02 | 0.0833 ± 0.0083 | 0.0677 ± 0.011 | 0.057 ± 0.007 | 1 ± 0.018 | 0.996 ± 0.018 | 1.01 ± 0.015 | 1.01 ± 0.0071 | 1.07 ± 0.041 | 1.04 ± 0.019 | 0.497 ± 0.022 | 0.231 ± 0.024
S68 BREAST | 1.12 ± 0.4 | 0.785 ± 0.22 | 0.995 ± 0.23 | 0.572 ± 0.26 | 0.155 ± 0.034 | 0.143 ± 0.013 | 0.0783 ± 0.015 | 0.0627 ± 0.0081 | 0.939 ± 0.27 | 1.1 ± 0.18 | 1.01 ± 0.072 | 1.44 ± 0.12 | 1.07 ± 0.22 | 0.776 ± 0.095 | 0.369 ± 0.016 | 0.297 ± 0.024
CME SYNOVIAL | 1.11 ± 0.17 | 1.09 ± 0.11 | 1.21 ± 0.11 | 1.08 ± 0.12 | 0.488 ± 0.098 | 0.355 ± 0.085 | 0.275 ± 0.039 | 0.333 ± 0.033 | 1.18 ± 0.13 | 1.09 ± 0.048 | 1.13 ± 0.081 | 1.13 ± 0.13 | 0.766 ± 0.015 | 0.364 ± 0.04 | 0.265 ± 0.0095 | 0.369 ± 0.023
CHLA90 AUTONOMIC GANGLIA | 1.009 ± 0.01 | 1.05 ± 0.036 | 0.951 ± 0.058 | 0.768 ± 0.011 | 0.177 ± 0.023 | 0.105 ± 0.012 | 0.0883 ± 0.012 | 0.0917 ± 0.0061 | 0.964 ± 0.044 | 0.995 ± 0.043 | 0.978 ± 0.069 | 0.959 ± 0.042 | 0.925 ± 0.043 | 0.925 ± 0.043 | 0.557 ± 0.05 | 0.484 ± 0.02
